Drawing on patent publication US20250171495A1, “MUTLI-TARGETED SERINE PROTEASE INHIBITORS FOR TREATMENT OF CANCER AND VIRAL INFECTION” (Washington University, priority 2023, published 2025), this text covers IC50 for ten molecules.

Where two headings read alike, the source gives them in different places. Numbered stars: 1 amine (or outer) side, 2 acyl side, 3 side chain; on linkers, the order of the positions; unused ones are H or OH. Square brackets hold non-standard residues; d marks the D form. Peptide text beside a SMILES is read from it. X1 = N=C(N)NCCC[C@H](N[*:1])C(=O)c1nc2ccc(C(=O)[*:2])cc2s1 Where only a bound is given, the exact number is not on record here.

Broadly, the IC50 is the concentration that gives 50% inhibition.

Common to all, as to type: biochemical
Assay [1] has as its target T1, matriptase (Homo sapiens, UniProt Q9Y5Y6).
T1 construct: purchased R&D Systems 3946-SEB-010
T1 sequence (Q9Y5Y6 615-855 limits assumed): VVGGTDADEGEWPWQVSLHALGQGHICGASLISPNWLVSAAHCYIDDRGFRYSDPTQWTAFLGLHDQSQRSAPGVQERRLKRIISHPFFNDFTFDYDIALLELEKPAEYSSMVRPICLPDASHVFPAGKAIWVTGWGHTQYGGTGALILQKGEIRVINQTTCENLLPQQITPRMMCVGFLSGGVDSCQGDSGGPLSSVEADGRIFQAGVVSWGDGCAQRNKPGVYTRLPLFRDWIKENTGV
Kind of assay: Fluorogenic kinetic enzyme inhibitor assay, matriptase.

Assay [2] concerns the target T2, hepsin (Homo sapiens, UniProt P05981).
T2 construct: purchased R&D Systems 4776-SE-010
In words: Fluorogenic kinetic enzyme inhibitor assay, hepsin.

Assay [3] deals with T3, HGFA (Homo sapiens, UniProt Q04756).
T3 construct: purchased R&D Systems 1514-SE-010
T3 sequence (Q04756 408-655 limits assumed): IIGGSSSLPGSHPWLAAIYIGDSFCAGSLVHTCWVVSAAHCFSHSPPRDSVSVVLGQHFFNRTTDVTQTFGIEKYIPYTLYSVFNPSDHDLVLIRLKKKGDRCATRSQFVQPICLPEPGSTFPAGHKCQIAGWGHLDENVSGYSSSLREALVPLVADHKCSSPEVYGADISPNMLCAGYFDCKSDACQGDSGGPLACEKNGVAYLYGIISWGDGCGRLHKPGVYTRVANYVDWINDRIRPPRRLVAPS
T3 sequence (Q04756 373-407 partner limits assumed): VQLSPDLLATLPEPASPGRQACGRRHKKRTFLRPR
Kind of assay: Fluorogenic kinetic enzyme inhibitor assay, HGFA.

The target of assay [4] is Thrombin (Homo sapiens, UniProt P00734). In words: Fluorogenic assay, thrombin.
For assay [5], the target named is T4, Factor Xa (Homo sapiens, UniProt P00742).
T4 construct: TMPRSS2; Matriptase; Hepsin; HGFA; Thrombin; Factor Xa
In words: Fluorogenic assay, Factor Xa. The note with it: read-out: Factor Xa IC50.

Assay [6] concerns the target TMPRSS2 (Homo sapiens, UniProt O15393). Kind of assay: Fluorogenic kinetic enzyme inhibitor assay, TMPRSS2. The arrangement: purchased Cusabio Technology CSB-YP023924HU.
The mark [7] stands for this setting: 30 min incubation, Boc-QAR-AMC at Km, read-out: Matriptase IC50.
[8] abbreviates: 30 min incubation, Boc-QAR-AMC at Km, read-out: Hepsin IC50.
The mark [9] stands for this setting: 30 min incubation, Boc-QLR-AMC at Km, read-out: HGFA IC50.
The mark [10] stands for this setting: 30 min incubation, Boc-QAR-AMC at Km, read-out: TMPRSS2 IC50.

TMPRSS2, sequence (O15393 106-492 limits assumed): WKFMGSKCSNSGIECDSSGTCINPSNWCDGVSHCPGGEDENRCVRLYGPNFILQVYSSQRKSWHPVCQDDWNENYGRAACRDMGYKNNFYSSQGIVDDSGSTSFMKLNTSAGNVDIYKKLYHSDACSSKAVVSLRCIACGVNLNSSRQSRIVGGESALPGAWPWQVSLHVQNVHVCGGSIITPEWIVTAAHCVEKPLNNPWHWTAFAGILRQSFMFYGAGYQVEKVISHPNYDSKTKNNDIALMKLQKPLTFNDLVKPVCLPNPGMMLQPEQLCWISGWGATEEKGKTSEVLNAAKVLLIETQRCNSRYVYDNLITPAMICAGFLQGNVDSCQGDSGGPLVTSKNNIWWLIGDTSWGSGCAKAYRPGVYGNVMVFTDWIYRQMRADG
T2 sequence (P05981 163-417 limits assumed): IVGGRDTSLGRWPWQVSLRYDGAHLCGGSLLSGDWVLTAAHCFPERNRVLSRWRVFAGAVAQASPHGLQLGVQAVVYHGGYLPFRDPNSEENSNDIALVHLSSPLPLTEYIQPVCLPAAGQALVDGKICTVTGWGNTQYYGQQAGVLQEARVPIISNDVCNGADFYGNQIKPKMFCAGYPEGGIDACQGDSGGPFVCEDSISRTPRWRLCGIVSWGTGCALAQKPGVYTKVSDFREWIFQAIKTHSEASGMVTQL
T2 sequence (P05981 1-162 partner limits assumed): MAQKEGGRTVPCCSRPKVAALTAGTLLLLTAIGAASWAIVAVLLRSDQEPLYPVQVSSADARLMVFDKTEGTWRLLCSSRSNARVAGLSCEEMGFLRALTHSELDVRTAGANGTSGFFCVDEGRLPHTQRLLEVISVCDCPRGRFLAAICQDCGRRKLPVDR
T4 sequence (P00742 235-488 limits assumed): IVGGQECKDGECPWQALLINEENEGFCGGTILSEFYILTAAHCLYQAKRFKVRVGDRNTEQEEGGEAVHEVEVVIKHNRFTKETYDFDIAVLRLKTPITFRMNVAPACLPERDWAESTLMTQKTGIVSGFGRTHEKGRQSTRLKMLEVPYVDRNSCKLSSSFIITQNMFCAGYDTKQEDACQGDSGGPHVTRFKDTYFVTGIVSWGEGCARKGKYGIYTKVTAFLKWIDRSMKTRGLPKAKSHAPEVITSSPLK
T4 sequence (P00742 41-179 partner limits assumed): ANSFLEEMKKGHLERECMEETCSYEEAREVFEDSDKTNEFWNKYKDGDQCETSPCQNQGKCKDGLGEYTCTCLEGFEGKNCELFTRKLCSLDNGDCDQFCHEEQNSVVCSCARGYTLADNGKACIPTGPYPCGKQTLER

In the case of `CC(=O)N[C@H]1Cc2ccc(cc2)OCCCC[C@@H](C(=O)N[C@@H](CCCNC(=N)N)C(=O)c2nc3ccccc3s2)NC(=O)[C@H](CC(C)C)NC1=O` [VD4072, N-[(S)-1-[(1,3-benzothiazol-2-yl)carbonyl]-4-guanidinobutyl]-(7S,10S,13S)-13-acetylamino-10-isobutyl-9,12-dioxo-2-oxa-8,11-diazabicyclo[13.2.2]nonadeca-1(17),15,18-triene-7-carboxamide], the half-inhibitory concentration (IC50) in assay [1] (setting [7]) was 32 nM; in assay [2] (setting [8]), 0.91 nM; in assay [3] (setting [9]), 40 nM; in assay [4], more than 20000 nM; in assay [5] it was 2650 nM; in assay [6] (setting [10]), 9.79 nM.
With `CC(=O)N[C@H]1CCCCn2cc(nn2)C[C@H](C(=O)N[C@@H](CCCNC(=N)N)C(=O)c2nc3ccccc3s2)NC(=O)[C@H](CC(C)C)NC1=O` [VD4118B, N-[(S)-1-[(1,3-benzothiazol-2-yl)carbonyl]-4-guanidinobutyl]-(6S,9S,12R)-6-acetylamino-9-isobutyl-7,10-dioxo-1,8,11,15,16-pentaazabicyclo[12.2.1]heptadeca-14(17),15-diene-12-carboxamide], the IC50 was 91.2 nM in assay [1] (setting [7]); 137 nM in assay [2] (setting [8]); 10900 nM in assay [3] (setting [9]); more than 20000 nM in assay [4]; 9540 nM in assay [5]; 14.9 nM in assay [6] (setting [10]).
Consider `CC(=O)N[C@H]1Cc2ccc(cc2)OCCCC[C@@H](C(=O)N[C@@H](CCCNC(=N)N)C(=O)c2nc3ccccc3s2)NC(=O)[C@H](Cc2c[nH]c3ccccc23)NC1=O` [VD4158, N-[(S)-1-[(1,3-benzothiazol-2-yl)carbonyl]-4-guanidinobutyl]-(7S,10S,13S)-13-acetylamino-10-[(3-indolyl)methyl]-9,12-dioxo-2-oxa-8,11-diazabicyclo[13.2.2]nonadeca-1(17),15,18-triene-7-carboxamide], for which the IC50 in assay [1] (setting [7]) is 56.8 nM; in assay [2], 2.84 nM; in assay [3] (setting [9]), 85.2 nM; in assay [4] it was more than 20000 nM; in assay [5], 9530 nM; in assay [6] (setting [10]), 15.8 nM.
Take `CC(=O)N[C@H]1Cc2ccc(cc2)OC/C=C\C[C@@H](C(=O)N[C@@H](CCCNC(=N)N)C(=O)c2nc3ccccc3s2)NC(=O)[C@@H](Cc2c[nH]c3ccccc23)NC1=O` [VD5027, N-[(S)-1-[(1,3-benzothiazol-2-yl)carbonyl]-4-guanidinobutyl]-(4Z,7S,10R,13S)-13-acetylamino-10-[(3-indolyl)methyl]-9,12-dioxo-2-oxa-8,11-diazabicyclo[13.2.2]nonadeca-1(17),4,15,18-tetraene-7-carboxamide]: the IC50 in assay [1] (setting [7]) amounted to 5.68 nM; in assay [2] (setting [8]), 0.693 nM; in assay [3] (setting [9]), 4.58 nM; in assay [4] it was 19900 nM; in assay [5], 1360 nM; in assay [6] (setting [10]), 0.978 nM.
Regarding `CC(=O)N[C@H]1Cc2ccc(cc2)Oc2cccc(c2)C[C@@H](C(=O)N[C@@H](CCCNC(=N)N)C(=O)c2nc3ccccc3s2)NC(=O)[C@H](CC(C)C)NC1=O` [VD5064B, N-[(S)-1-[(1,3-benzothiazol-2-yl)carbonyl]-4-guanidinobutyl]-(9S,12S,15S)-15-acetylamino-12-isobutyl-11,14-dioxo-2-oxa-10,13-diazatricyclo[15.2.2.1^3,^7]docosa-1(19),3,5,7(22),17,20-hexaene-9-carboxamide], the IC50 was 90 nM in assay [1] (read-out: Matriptase IC50); 0.168 nM in assay [2] (read-out: Hepsin IC50); 61.4 nM in assay [3] (setting [9]); more than 20000 nM in assay [4]; 955 nM in assay [5]; 11 nM in assay [6] (setting [10]).
As for `CC(=O)N[C@@H](CO)C(=O)N[C@@H](CCCCN)C(=O)N[C@@H](Cc1ccccc1)C(=O)N[C@@H](CCCNC(=N)N)C(=O)c1nccs1` [ZFH6095, N-[(S)-1-[N-(S)-4-guanidino-1-[(1,3-thiazol-2-yl)carbonyl]butylcarbamoyl]-2-phenylethyl](S)-2-[(S)-2-acetylamino-3-hydroxypropionylamino]-6-aminohexanamide], the IC50 in assay [1] was 6.1 nM; in assay [2] (read-out: Hepsin IC50) it was 17 nM; in assay [3], 114 nM; in assay [4] it was more than 20000 nM; in assay [5], 1060 nM; in assay [6] (read-out: TMPRSS2 IC50) it was 7.89 nM.
In the case of `CC(=O)N[C@@H](CCCCN)C(=O)N[C@@H](CCC(N)=O)C(=O)N[C@@H](Cc1ccccc1)C(=O)N[C@@H](CCCNC(=N)N)C(=O)c1nccs1` [ZFH6101, N-[(S)-1-[N-(S)-4-guanidino-1-[(1,3-thiazol-2-yl)carbonyl]butylcarbamoyl]-2-phenylethyl](S)-2-[(S)-1-acetylamino-5-aminopentylcarbonylamino] glutaramide], the IC50 in assay [1] was 1.4 nM; in assay [2] (read-out: Hepsin IC50) it was 1.2 nM; in assay [3] (read-out: HGFA IC50) it was 116 nM; in assay [4], more than 20000 nM; in assay [5], 158 nM; in assay [6] (read-out: TMPRSS2 IC50), 28.9 nM.
Regarding `CC(=O)N[C@@H](Cc1ccccc1)C(=O)N[C@@H](CC(C)C)C(=O)N[C@@H](Cc1ccccc1)C(=O)N[C@@H](CCCNC(=N)N)C(=O)c1nc2ccccc2s1` [ZFH7063, N-[(S)-1-[N-(S)-1-[(1,3-benzothiazol-2-yl)carbonyl]-4-guanidinobutylcarbamoyl]-2-phenylethyl](S)-2-[(S)-2-acetylamino-3-phenylpropionylamino]-4-methylvaleramide], the IC50 in assay [1] is 7.2 nM; in assay [2] it was 2.9 nM; in assay [3], 228 nM; in assay [4], more than 20000 nM; in assay [5], 26 nM; in assay [6] (read-out: TMPRSS2 IC50) it was 3 nM.
In the case of `CC(=O)N[C@@H](Cc1c[nH]c2ccccc12)C(=O)N[C@@H](CC(C)C)C(=O)N[C@@H](Cc1ccccc1)C(=O)N[C@@H](CCCNC(=N)N)C(=O)c1nc2ccccc2s1` [ZFH7064, N-[(S)-1-[N-(S)-1-[(1,3-benzothiazol-2-yl)carbonyl]-4-guanidinobutylcarbamoyl]-2-phenylethyl](S)-2-[(S)-2-acetylamino-3-(3-indolyl)propionylamino]-4-methylvaleramide], the IC50 is 12 nM in assay [1]; 0.69 nM in assay [2]; 266 nM in assay [3]; more than 20000 nM in assay [4]; 2 nM in assay [5]; 0.092 nM in assay [6] (read-out: TMPRSS2 IC50).
Turning to `CC(=O)N[C@@H](CO)C(=O)N[C@@H](CCCCN)C(=O)N[C@@H](CC(C)C)C(=O)N[C@@H](CCCNC(=N)N)C(=O)c1nc2ccc(C(=O)N[C@H](C(N)=O)C(C)C)cc2s1` [ZFH7116, N-[(S)-1-carbamoyl-2-methylpropyl]-2-[(S)-2-[(S)-2-[(S)-1-[(S)-2-acetylamino-3-hydroxypropionylamino]-5-aminopentylcarbonyl-amino]-4-methylvalerylamino]-5-guanidinovaleryl]-1,3-benzothiazole-6-carboxamide] (Ac-SKL[X1]V-NH2), the IC50 was 14 nM in assay [1] (read-out: Matriptase IC50); 1 nM in assay [2] (read-out: Hepsin IC50); 23 nM in assay [3] (read-out: HGFA IC50); 7530 nM in assay [4]; 514 nM in assay [5]; 2.5 nM in assay [6].
